The source of these data is patent US8546403B2, “Compounds that modulate intracellular calcium” (Calcimedica, Inc., priority 2010, dated 2013).

The nature of one data set: Microsomal stability of compounds (liver microsomes, LC/MS/MS). In kind it is in vitro ADME. The settings on record: 5 μM test compound, 1 mg/mL microsomal protein, 37° C. up to 60 minutes, species and Phase I / Phase I+II not given. The method, then:
Microsomal Stability of Compounds Described Herein
Liver microsomes are purchased from XenoTech, LLC (Lenexa, Kans.). Other chemicals are obtained from Sigma-Aldrich (Milwaukee, Wis.). Solvents for LC/MS/MS mobile phases and disposable labware are obtained from various vendors.
Study Protocol Phase I Only (Oxidative Metabolism in the Presence of NADPH-Regenerating System but without UDPGA):
A mixture of the test compound and liver microsomes (475 μL total) are pre-incubated for 5 minutes at 37° C. The reactions are initiated by the addition of 25 μL of the co-factor NADPH regenerating system) and are allowed to proceed at 37° C. for up to 60 minutes. The final concentrations in the assay were: 5 μM test compound, 1 mg/mL microsomal protein, 1 mM NADP+, 5 mM glucose-6-phosphate and 1 U/mL glucose-6-phosphate dehydrogenase in 50 mM potassium phosphate (pH 7.4) containing 3.3 mM MgCl2 and 100 μM EDTA. […] At pre-determined time points, the reactions are terminated by removing 50 μL-aliquots and quenching them with […] of ACN mixture containing 0.5 μM of the internal standard (carbamazepine) to achieve protein precipitation. The samples are vortexed, centrifuged at 4000 rpm (3400 rcf) for 15 minutes, and clear supernatants are analyzed by LC/MS/MS.
Phase I and II: (Oxidative Metabolism and Conjugation in the Presence of NADPH-Regenerating System and UDPGA):
The reaction mixtures are prepared similar to what is described above, except 6.6 mM UDPGA, 6.25 μg/mL alamethicin, and 1.25 mM of D-Saccharic acid 1,4-lactone (final assay concentrations) are also added together with the NADPH-regenerating system. Midazolam and 4-methylumbelliferone are used as positive controls for Phase I and Phase II, respectively.
Bioanalysis is conducted using a non-GLP LC/MS/MS method. Calibration curves are not generated and the ratios of the test compound peak area to the internal standard peak area are used to determine the relative amounts of test compound remaining at each time point.
For the compound `CC(C)C(=O)Nc1ccc(-c2cc3c(cc2Cl)OC(F)(F)O3)cn1` [Compound 34], the “Microsomal t ½ (min)” value is reported as “Stable (Stable is defined herein as less than 10% degradation)”.

As for `O=C(Nc1ccc(-c2cc3c(cc2Cl)OC(F)(F)O3)cn1)c1c(F)cccc1F` [Compound 3], the “Microsomal t ½ (min)” value is given as “Stable (Stable is defined herein as less than 10% degradation)”.

Take `Cc1cc2c(cc1-c1ccc(NC(=O)c3c(F)cncc3F)nc1)OC(F)(F)O2` [Compound 35]: the “Microsomal t ½ (min)” value is “Stable (Stable is defined herein as less than 10% degradation)”.

Consider `Cc1cc2c(cc1-c1cnc(NC(=O)c3ccccc3F)cn1)OC(F)(F)O2` [Compound 25], for which the “Microsomal t ½ (min)” value was “Stable (Stable is defined herein as less than 10% degradation)”.

Take `O=C(Nc1cnc(-c2cc3c(cc2Cl)OC(F)(F)O3)cn1)c1cccc(F)c1F` [Compound 18]: the “Microsomal t ½ (min)” value was “Stable (Stable is defined herein as less than 10% degradation)”.

`O=C(Nc1ccc(-c2cc3c(cc2Cl)OC(F)(F)O3)cn1)c1ccncc1Cl` [Compound 8]: the “Microsomal t ½ (min)” value is given as “Stable (Stable is defined herein as less than 10% degradation)”.

Consider `Cc1ccccc1C(=O)Nc1cnc(-c2cc3c(cc2Cl)OC(F)(F)O3)cn1` [Compound 17], for which the “Microsomal t ½ (min)” value is on record as “Stable (Stable is defined herein as less than 10% degradation)”.

With `Cc1ccc(F)cc1C(=O)Nc1cnc(-c2cc3c(cc2Cl)OC(F)(F)O3)cn1` [Compound 19], the “Microsomal t ½ (min)” value is on record as “Stable (Stable is defined herein as less than 10% degradation)”.

Turning to `Cc1cc2c(cc1-c1cnc(NC(=O)c3c(F)cncc3F)cn1)OC(F)(F)O2` [Compound 28], the “Microsomal t ½ (min)” value was “Stable (Stable is defined herein as less than 10% degradation)”.

`Cc1cc2c(cc1-c1cnc(NC(=O)c3c(F)cccc3F)cn1)OC(F)(F)O2` [Compound 23]: the “Microsomal t ½ (min)” value is recorded as “Stable (Stable is defined herein as less than 10% degradation)”.

Turning to `Cc1nnsc1C(=O)Nc1cnc(-c2cc3c(cc2Cl)OC(F)(F)O3)cn1` [Compound 14], the “Microsomal t ½ (min)” value is given as “Stable (Stable is defined herein as less than 10% degradation)”.

As to `Cc1cc2c(cc1-c1ccc(NC(=O)c3c(F)cccc3F)nc1)OC(F)(F)O2` [Compound 21], the “Microsomal t ½ (min)” value was “Stable (Stable is defined herein as less than 10% degradation)”.

On to `O=C(Nc1cnc(-c2cc3c(cc2Cl)OC(F)(F)O3)cn1)c1ccccc1F` [Compound 13], for which the “Microsomal t ½ (min)” value is listed as “Stable (Stable is defined herein as less than 10% degradation)”.

In the case of `O=C(Nc1ccc(-c2cc3c(cc2Cl)OC(F)(F)O3)cn1)c1c(F)cncc1F` [Compound 9], the “Microsomal t ½ (min)” value is listed as “Stable (Stable is defined herein as less than 10% degradation)”.

Still in this data set, the particulars now being: pH 7.4, 5 μM test compound, 1 mg/mL microsomal protein, 37° C. up to 60 minutes, species and Phase I / Phase I+II not given, read-out: Microsomal t ½.
With `O=C(Nc1cnc(-c2cc3c(cc2Cl)OC(F)(F)O3)cn1)C1CCCC1` [Compound 29], the half-life at 5 μM amounted to 38 min.

Turning to `O=C(Nc1ccc(-c2cc3c(cc2Br)OCO3)cc1)c1c(F)cccc1F` [Compound 2], the half-life at 5 μM worked out at 3 min.

Consider `Cc1c(F)cccc1C(=O)Nc1cnc(-c2cc3c(cc2Cl)OC(F)(F)O3)cn1` [Compound 20], for which the half-life at 5 μM stood at 74 min.

For `Cc1cc2c(cc1-c1ccc(NC(=O)c3c(F)cccc3F)nc1)OCO2` [Compound 10], the half-life at 5 μM came to 22 min.

As for `O=C(Nc1ccc(-c2cc3c(cc2Cl)OC(F)(F)O3)cn1)c1ccncc1Cl` [Compound 7], the half-life at 5 μM was 339 min.

As to `O=C(Nc1ccc(-c2cc3c(cc2Br)OCO3)cn1)c1c(F)cccc1F` [Compound 1], the half-life at 5 μM stood at 6 min.

On to `O=C(Nc1ccc(-c2cc3c(cc2Cl)OC(F)(F)O3)cn1)c1ccncc1F` [Compound 4], for which the half-life at 5 μM stood at 281 min.

On to `Cc1ccc(F)cc1C(=O)Nc1cnc(-c2cc3c(cc2C)OC(F)(F)O3)cn1` [Compound 26], for which the half-life at 5 μM is 47 min.

Regarding `Cc1ccccc1C(=O)Nc1cnc(-c2cc3c(cc2C)OC(F)(F)O3)cn1` [Compound 24], the half-life at 5 μM turned out to be 67 min.

On to `O=C(Nc1ccc(-c2cc3c(cc2Cl)OC(F)(F)O3)cn1)C1CCC1` [Compound 30], for which the half-life at 5 μM is 11 min.

Regarding `O=C(CCc1ccccc1)Nc1ccc(-c2cc3c(cc2Cl)OC(F)(F)O3)cn1` [Compound 31], the half-life at 5 μM was found to be 26 min.

For `[2H]C1([2H])Oc2cc(C)c(-c3ccc(NC(=O)c4c(F)cccc4F)nc3)cc2O1` [Compound 15], the half-life at 5 μM came to 36 min.

In the case of `O=C(Nc1ccc(-c2cc3c(cc2Cl)OC(F)(F)O3)cn1)C1CC1` [Compound 33], the half-life at 5 μM was found to be 81 min.

On to `Cc1ccccc1C(=O)Nc1ccc(-c2cc3c(cc2C)OC(F)(F)O3)cn1` [Compound 22], for which the half-life at 5 μM worked out at 109 min.

For `CCCC(=O)Nc1ccc(-c2cc3c(cc2Cl)OC(F)(F)O3)cn1` [Compound 32], the half-life at 5 μM was 19 min.

On to `O=C(Nc1ccc(-c2cc3c(cc2Cl)OC(F)(F)O3)cn1)C1CCCC1` [Compound 27], for which the half-life at 5 μM worked out at 40 min.

Regarding `[2H]C1([2H])Oc2cc(C)c(-c3cnc(NC(=O)c4c(F)cccc4F)cn3)cc2O1` [Compound 16], the half-life at 5 μM came out at 17 min.
